According to the supplement of paper PMC10307832:

Legend:
Test in all cases: relative viability (nuclei count vs DMSO), 5 days (fraction); higher = more cells survive
[1] = tested on: SK-LU-1
Procedure, shortened: (§1)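 One day after seeding in 1536-well plates, lung cancer cell lines were dosed by pin tool. Dosing was either single-drug or a fixed anchor-drug dose plus five library-drug doses (not always all listed) in √10 steps. After 5 days, nuclei were stained in one fix-and-stain step and counted on 4× images, and relative viability is the nuclei count of treated wells over that of vehicle wells, given as the median of duplicate plates.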

[2] = tested on: NCI-H1993
Procedure, shortened: as §1

[3] = tested on: HCC-78
Procedure, shortened: as §1

[4] = tested on: NCI-H838
Procedure, shortened: as §1

[5] = tested on: HCC-15
Procedure, shortened: as §1

[6] = tested on: NCI-H2405
Procedure, shortened: as §1

[7] = tested on: HCC-366
Procedure, shortened: as §1

[8] = tested on: NCI-H2023
Procedure, shortened: as §1

[9] = tested on: NCI-H1395
Procedure, shortened: as §1

[10] = tested on: COR-L23
Procedure, shortened: as §1

[11] = tested on: LC-2-ad
Procedure, shortened: as §1

[12] = tested on: NCI-H1944
Procedure, shortened: as §1

[13] = tested on: HARA
Procedure, shortened: as §1

[14] = tested on: NCI-H23
Procedure, shortened: as §1

[15] = tested on: HOP-62
Procedure, shortened: as §1

[16] = tested on: NCI-H358
Procedure, shortened: as §1

[17] = tested on: EMC-BAC-2
Procedure, shortened: as §1

[18] = tested on: NCI-H1793
Procedure, shortened: as §1

[19] = tested on: NCI-H2228
Procedure, shortened: as §1

[20] = tested on: NCI-H2126
Procedure, shortened: as §1

[21] = tested on: ChaGo-K-1
Procedure, shortened: as §1

What does the source list for CC(=O)O[C@@]12CO[C@@H]1C[C@H](O)[C@@]1(C)C(=O)[C@H](O)C3=C(C)[C@@H](OC(=O)[C@H](O)[C@@H](NC(=O)OC(C)(C)C)c4ccccc4)C[C@@](O)([C@@H](OC(=O)c4ccccc4)[C@H]21)C3(C)C [Docetaxel] + CC(=O)Nc1cccc(-n2c(=O)n(C3CC3)c(=O)c3c(Nc4ccc(I)cc4F)n(C)c(=O)c(C)c32)c1 [Trametinib] (partner 0.02 µM)?
relative viability ([1]; first compound 0.0002 µM): 0.518; relative viability ([1]; first compound 0.000632 µM): 0.468; relative viability ([1]; first compound 0.002 µM): 0.411; relative viability ([1]; first compound 0.006325 µM): 0.281; relative viability ([1]; first compound 0.02 µM): 0.223; relative viability ([2]; first compound 0.0002 µM): 0.504; relative viability ([2]; first compound 0.000632 µM): 0.578; relative viability ([2]; first compound 0.002 µM): 0.546; relative viability ([2]; first compound 0.006325 µM): 0.481; relative viability ([2]; first compound 0.02 µM): 0.3; relative viability ([3]; first compound 0.0002 µM): 0.751; relative viability ([3]; first compound 0.000632 µM): 0.73; relative viability ([3]; first compound 0.002 µM): 0.502; relative viability ([3]; first compound 0.006325 µM): 0.446; relative viability ([3]; first compound 0.02 µM): 0.371; relative viability ([4]; first compound 0.0002 µM): 0.456; relative viability ([4]; first compound 0.000632 µM): 0.638; relative viability ([4]; first compound 0.002 µM): 0.183; relative viability ([4]; first compound 0.006325 µM): 0.141; relative viability ([4]; first compound 0.02 µM): 0.0997; relative viability ([5]; first compound 0.0002 µM): 0.401; relative viability ([5]; first compound 0.000632 µM): 0.313; relative viability ([5]; first compound 0.002 µM): 0.193; relative viability ([5]; first compound 0.006325 µM): 0.247; relative viability ([5]; first compound 0.02 µM): 0.159; relative viability ([6]; first compound 0.0002 µM): 0.597; relative viability ([6]; first compound 0.000632 µM): 0.618; relative viability ([6]; first compound 0.002 µM): 0.531; relative viability ([6]; first compound 0.006325 µM): 0.456; relative viability ([6]; first compound 0.02 µM): 0.266; relative viability ([7]; first compound 0.0002 µM): 0.303; relative viability ([7]; first compound 0.000632 µM): 0.102; relative viability ([7]; first compound 0.002 µM): 0.0555; relative viability ([7]; first compound 0.006325 µM): 0.0799; relative viability ([7]; first compound 0.02 µM): 0.0179; relative viability ([8]; first compound 0.0002 µM): 0.498; relative viability ([8]; first compound 0.000632 µM): 0.521; relative viability ([8]; first compound 0.002 µM): 0.141; relative viability ([8]; first compound 0.006325 µM): 0.127; relative viability ([8]; first compound 0.02 µM): 0.0628; relative viability ([9]; first compound 0.0002 µM): 1.04; relative viability ([9]; first compound 0.000632 µM): 1.06; relative viability ([9]; first compound 0.002 µM): 0.907; relative viability ([9]; first compound 0.006325 µM): 0.467; relative viability ([9]; first compound 0.02 µM): 0.297; relative viability ([10]; first compound 0.0002 µM): 0.528; relative viability ([10]; first compound 0.000632 µM): 0.579; relative viability ([10]; first compound 0.002 µM): 0.223; relative viability ([10]; first compound 0.006325 µM): 0.155; relative viability ([10]; first compound 0.02 µM): 0.0909; relative viability ([11]; first compound 0.0002 µM): 0.886; relative viability ([11]; first compound 0.000632 µM): 0.737; relative viability ([11]; first compound 0.002 µM): 0.345; relative viability ([11]; first compound 0.006325 µM): 0.297; relative viability ([11]; first compound 0.02 µM): 0.226; relative viability ([12]; first compound 0.0002 µM): 0.387; relative viability ([12]; first compound 0.000632 µM): 0.371; relative viability ([12]; first compound 0.002 µM): 0.294; relative viability ([12]; first compound 0.006325 µM): 0.241; relative viability ([12]; first compound 0.02 µM): 0.118; relative viability ([13]; first compound 0.0002 µM): 0.456; relative viability ([13]; first compound 0.000632 µM): 0.155; relative viability ([13]; first compound 0.002 µM): 0.235; relative viability ([13]; first compound 0.006325 µM): 0.16; relative viability ([13]; first compound 0.02 µM): 0.104; relative viability ([14]; first compound 0.0002 µM): 0.377; relative viability ([14]; first compound 0.000632 µM): 0.294; relative viability ([14]; first compound 0.002 µM): 0.278; relative viability ([14]; first compound 0.006325 µM): 0.195; relative viability ([14]; first compound 0.02 µM): 0.132; relative viability ([15]; first compound 0.0002 µM): 0.328; relative viability ([15]; first compound 0.000632 µM): 0.446; relative viability ([15]; first compound 0.002 µM): 0.355; relative viability ([15]; first compound 0.006325 µM): 0.32; relative viability ([16]; first compound 0.0002 µM): 0.167; relative viability ([16]; first compound 0.000632 µM): 0.138; relative viability ([16]; first compound 0.002 µM): 0.124; relative viability ([16]; first compound 0.006325 µM): 0.0884; relative viability ([16]; first compound 0.02 µM): 0.083; relative viability ([17]; first compound 0.0002 µM): 0.874; relative viability ([17]; first compound 0.000632 µM): 0.76; relative viability ([17]; first compound 0.002 µM): 0.554; relative viability ([17]; first compound 0.006325 µM): 0.476; relative viability ([17]; first compound 0.02 µM): 0.385; relative viability ([18]; first compound 0.0002 µM): 0.378; relative viability ([18]; first compound 0.000632 µM): 0.433; relative viability ([18]; first compound 0.002 µM): 0.384; relative viability ([18]; first compound 0.006325 µM): 0.316; relative viability ([18]; first compound 0.02 µM): 0.272; relative viability ([19]; first compound 0.0002 µM): 0.529; relative viability ([19]; first compound 0.000632 µM): 0.233; relative viability ([19]; first compound 0.002 µM): 0.202; relative viability ([19]; first compound 0.006325 µM): 0.188; relative viability ([19]; first compound 0.02 µM): 0.121; relative viability ([20]; first compound 0.0002 µM): 0.543; relative viability ([20]; first compound 0.000632 µM): 0.471; relative viability ([20]; first compound 0.002 µM): 0.403; relative viability ([20]; first compound 0.006325 µM): 0.31; relative viability ([21]; first compound 0.0002 µM): 0.871; relative viability ([21]; first compound 0.000632 µM): 0.815; relative viability ([21]; first compound 0.002 µM): 0.443; relative viability ([21]; first compound 0.006325 µM): 0.323; relative viability ([21]; first compound 0.02 µM): 0.157
